Consider three compounds from US20230340012A1, “NATURAL AND SYNTHETIC COMPOUNDS FOR TREATING CANCER AND OTHER DISEASES” (PACIFIC ARROW LIMITED, priority 2009, published 2023).

Data set [1] deals with ANGPT2, DDIT3, LIF and NFKB1Z. To be noted: Real-time PCR; results in Table 19-21 of PCT/US09/34115; cited from earlier work.
Data set [2] deals with Erythrocytes (RBC). Nature of the data set: The haemolytic assay. To be noted: in words, no concentration given.
Data set [3] deals with cancer cells. Briefly: Inhibition of cancer growth, cancer invasion, cell invasion or cancer cell invasion. Format: cell-based. The text has this:
The program is based on our purification methods and biological assays including the MTT assay. See International Application No. PCT/US05/31900, filed Sep. 7, 2005, U.S. Serial No. 11/289,142, filed Nov. 28, 2005, and U.S. Serial No. 11/131551, filed May 17, 2005, and PCT/US2008/002086, 1188-ALA-PCT, filed Feb. 15, 2008, 12/344,682, 1020-B1-US, filed Dec. 29, 2008. The details of Analysis of gene expression of ES2 cells after Y-treatment by Microarray, Data Analysis Methods and Western blot in PCT/US2008/002086, 1188-ALA-PCT, filed Feb. 15, 2008, and the cell invasion experiments methods in International Application PCT/US2010/0042240, filed Jul. 16, 2010.

For data set [4], the system named is SK-Mel-5. Briefly: MTT assay, skin (SK-Mel-5). Format: cell-based, human. As to the method:
(§1) Cells. HTB-9 (bladder), HeLa-S3 (cervix), DU145 (prostate), H460 (lung), MCF-7 (breast), K562 (leukemia), HCT116 (colon), HepG2 (liver), U2OS (bone), T98G (brain), SK-MEL-5 (Skin) and OVCAR 3, ES2 (ovary), Pancreas (Capan), Mouth (KB), Kidney(A498).
(§2) MTT Assay. The procedure for MTT assay followed the method described by Carmichael et al. (1987) with modifications. The cells were seeded into a 96-well plate at for 24 hours before drug-treatment. The cells were then exposed to the drugs for 48, 72, or 96 hours. After the drug-treatment, MTT (0.5 mg/mL) was added to cultures and incubated for an hour. The formazan (product of the reduction of tetrazolium by viable cells) formed and was dissolved with DMSO and the O.D. at 490 nm, and was measured by an ELISA reader. The MTT level of the cells before drug-treatment was also measured (T0). The % cell-growth (%G) is calculated as: %G = (TD-T0 / TC-T0) x 100(1), where TC or TD represents O.D. readings of control or drug-treated cells. When T0 > TD, then the cytotoxicity (LC) expressed as % of the control is calculated as: %LC = (TD-T0 / T0) × 100(2).

Data set [5] deals with Hey8A cells. Briefly: Inhibition of cell adhesion, Hey8A. It is filed as cell-based. To be noted: 5 ug/ml, 5 hours. Here is the method: (§3) Methods and Results. ES2 or Hey8A cells were plated in T25 flasks with medium containing 5 ug/ml of compounds selected from structure (2A) including E4A-Tig-R, E4A-Tig-V, E4A-Tig-S, E4A-Tig-N, E4A-Tig-Q, E4A-Tig-T. Cultures were incubated for 5 hours. Attached cells were removed from flasks by trypsinization and the numbers/amounts were counted. Compared to no drug controls, 80 ± 4% of ES2 cells and 60 ± 4% of Hey8A cells were found attached to flasks under this condition. At 5 ug/ml of above compounds, over 90% of unattached cells are alive as determined by the trypan Blue exclusion assay and by their ability to re-attach to flasks when plating in medium without tested compounds. However, with 10 ug/ml tested compounds, less than 40% of cells attached to flasks and many of them are dead cells.

The subject of data set [6] is HCT116. Nature of the data set: MTT assay, colon (HCT116). It is filed as cell-based, human. Here is the method:
as §1, §2
A general note: Tetrazolium assays rely on reduction of a dye to a coloured formazan, in cell work by metabolically active cells.

Data set [7] has as its system ES2. Briefly: MTT assay, ovary (ES2). Format: cell-based, human. To be noted: MTT. As to the method:
as §1, §2
Method: A. Cells • -WI38 is a Normal Lung fibroblast. Cells were grown in MEM medium supplemented with 10% FCS, antibiotics and glutamine. 20 K cells were seeded per well (96-welled plate) for one day before drug-treatment • -ES2 is an Ovary Clear cells carcinoma. Cells were grown in RPMI-1640 medium supplemented with 10% FCS, antibiotics and glutamine. 10 K cells were seeded per well (96-welled plate) for one day before drug-treatment.
B. Drug treatment: • -Drug: Tig-S. stored as 1000x stock solution in DMSO. • -Drug concentration used: from 0.15 - 20 ug/ml. • -Drug-treatment was carried out for 2 days (ES2) or 6 days (WI38). For the 6 days incubation, cells were fed with fresh medium (with drug) on day 3 and 5.
C. At the end of the drug-treatment, cytotoxic test was performed with MTT assay.

The test system of data set [8] is U2OS. Briefly: MTT assay, bone (U2OS). It is filed as cell-based, human. Here is the method:
as §1, §2

Data set [9] has as its system OVCAR3. Briefly: MTT assay, ovary (OVCAR3). Format: cell-based, human. To be noted: MTT. As to the method:
as §1, §2

Data set [10] relates to HTB-9. Briefly: MTT assay, bladder (HTB-9). Format: cell-based, human. Here is the method:
as §1, §2

Data set [11] deals with MCF-7. Briefly: MTT assay, breast (MCF-7). It is filed as cell-based, human. Here is the method: as §1, §2
Data set [12] has as its system H460. Nature of the data set: MTT assay, lung (H460). It is filed as cell-based, human. To be noted: MTT. Here is the method: as §1, §2
Methods: • A. Cells • -- H460 cells are derived from a Human Lung large cell carcinoma. Cells were grown in RPMI 1640 medium supplemented with 10% FCS, antibiotics and glutamine. 5000 cells were seeded in a well (96-welled plate) for one day before drug-treatment • B. Drug treatment: • -- Drug: Tig-S (stored as a 1000x stock solution in DMSO) was used. • -- Drug concentration used: from 0.15 - 20 ug/ml. • -- Drug-treatment was carried out for 1, 2 and 4 days. For the 4 days incubation, cells were fed with fresh medium (with drug) on day 2. • C. At the end of the drug-treatment, cytotoxic test was performed with MTT assay. Results: • 1. Tig-S inhibits H460 cells’ growth with the IC50 of drug 3 ug/ml. • 2. […] cells growth inhibition was observed beyond drug 5 ug/ml. • 3. No dead cell was found at drug concentration in 20 ug/ml.

The subject of data set [13] is Fibronectin. Nature of the data set: Fibronectin secretion experiment (Western blot). Format: cell-based. To be noted: bladder, cervix, prostate, lung, breast, leukemia, colon, liver, bone, brain, skin, ovary, pancreas, mouth, kidney cells; 24 hours. As to the method:
Western blot is applied in this invention as a method to detect the specific proteins in treated and untreated cells with compounds in this invention, wherein the cells are bladder, cervix, prostate, lung, breast, leukemia, colon, liver, bone, brain, Skin, ovary, Pancreas(Capan), Mouth(KB), Kidney.
Cells: targeted cells were grown in RPMI 1640 medium. 1.5 million cells were seeded in a T25 flask and grown for 24 hours before drug-treatment.
Drug-treatment: Cells cultures were replaced with fresh RPMI medium containing either 2.5 ul of DMSO (as control) [D]; or 10, 20, 30, 40, 80 ug/ml of tested compounds.
After 24 hours, aliquot of culture medium was taken out for Fibronectin determination (Western blot method).
Cell viability at 24 hours was determined by MTT assay. Cultures were replaced with RPMI medium (5 ml) with MTT and incubated for an hour. The formation of formazan was dissolved in 10 ml of DMSO and OD at 570 nm was measured (MTT units). Western Blot: Spent culture medium was mixed with SDS sample buffer, boiled for 3 minutes before loading to SDS gel. Samples were applied to a 6-10% SDS gel and electrophoresis was conducted with 100 volts for 2 hours. Protein was transferred to a nitrocellulose membrane electrophoretically. The nitrocellulose blot was incubated with the first antibody and second antibody (AP conjugated, Promega S3721). The immuno-bands were developed with BCIP/NBT color development system.
Determination of Western blot band intensity: The band-images of Western blot were captured with a digital camera and the intensity of bands was determined using “Image J” software.
(In general: Immunoblotting shows a protein as a band on a membrane.)

For data set [14], the system named is ES2 cells. Briefly: Inhibition of cell adhesion, ES2. Format: cell-based, human. As to the method: as §3
Data set [15] concerns DU145. Nature of the data set: MTT assay, prostate (DU145). Format: cell-based, human. Here is the method:
as §1, §2

Data set [16] concerns K562. Briefly: MTT assay, leukemia (K562). Format: cell-based, human. Here is the method:
as §1, §2

Data set [17] relates to KB. Nature of the data set: MTT assay, mouth (KB). It is filed as cell-based, human. As to the method:
as §1, §2

In data set [18] the test system is A498. Nature of the data set: MTT assay, kidney (A498). Format: cell-based, human. As to the method: as §1, §2
For data set [19], the system named is T98G. Nature of the data set: MTT assay, brain (T98G). Format: cell-based, human. Here is the method:
as §1, §2

Data set [20] relates to HeLa. Briefly: MTT assay, cervix (HeLa). Format: cell-based, human. Here is the method: as §1, §2

The structures appear in SMILES notation.

On to `C/C=C(/C)C(=O)O[C@H]1[C@H](OC(=O)/C(C)=C\C)[C@@]2(CO)C(CC1(C)C)C1=CCC3[C@@]4(C)CC[C@H](O[C@@H]5OC(C(=O)O)[C@@H](O)[C@@H](O[C@@H]6O[C@@H](CO)[C@@H](O)C6O)C5O[C@@H]5OC(CO)[C@H](O)[C@@H](O)C5O)C(C)(C)C4CC[C@@]3(C)[C@]1(C)[C@@H](O)[C@H]2O` (stereo partly drawn) [Compound Y, 3-O-[β-D-galactopyranosyl (1→2)]-α-L-arabinofuranosy (1→3)-β-D-glucuronopyranosyl-21,22-O-diangeloyl-3β, 15α, 16α, 21β, 22α, 28-hexahydroxyolean-12-ene], for which, in data set [1], the “expression of the genes ANGPT2, DDIT3, LIF and NFKB1Z” value is reported as “increase”.

As for `C/C=C(/C)C(=O)O[C@H]1[C@H](OC(=O)/C(C)=C\C)[C@@]2(CO)C(CC1(C)C)C1=CCC3[C@@]4(C)CC[C@H](O)C(C)(C)C4CC[C@@]3(C)[C@]1(C)[C@@H](O)[C@H]2O` (stereo partly drawn) [ACH-Y3], in data set [2], the hemolytic activity entry is listed as “less potent”. Further, in data set [3], the “inhibiting cancer growth, cancer invasion, cell invasion or cancer cell invasion” value is “has the ability to inhibit”. Also, in [1], the “expression of the genes ANGPT2, DDIT3, LIF and NFKB1Z” value is given as “increase”.

As for `CC=C(C)C(=O)OCC1(C)C(O)CCC2(C)C1CCC1(C)C2CC=C2C3CC(C)(C)C(OC(=O)C(C)=CC)C(O)C3(COC(=O)C(C)=CC)C(O)CC21C` (stereo not drawn) [Tig-V], the “IC50 of skin (SK-Mel-5)” value in [4] came out at 6 µg/mL. The “Hey8A cells attached to flasks compared to no drug controls” value in [5] worked out at 60 ± 4%. The “IC50 of colon (HCT116)” value in [6] stood at 8 µg/mL. In addition, in data set [7], the “IC50 of ovary (ES2)” value worked out at 2 µg/mL. Also, the “IC50 of bone (U2OS)” value in data set [8] is 7 µg/mL. The anti-cancer activity result in data set [3] is given as “have anti-cancer activities”. For the same compound, the IC50 of ovary (OVCAR3) in [9] was 9 µg/mL. Besides, in data set [10], the “IC50 of bladder (HTB-9)” value was determined as 4 µg/mL. Besides, the “IC50 of breast (MCF-7)” value in data set [11] was determined as 9 µg/mL. The “IC50 of lung (H460)” value in [12] is 6.8 µg/mL. Also, the “inhibition of fibronectin secretion” value in [13] is 20-40%. For the same compound, the “ES2 cells attached to flasks compared to no drug controls” value in data set [14] (5 ug/ml, 5 hours) amounted to 80 ± 4%. Moreover, in [14] (5 ug/ml, trypan Blue exclusion, ES2 or Hey8A), the unattached cells alive result was “over 90%”. Also, in [14] (10 ug/ml, ES2 or Hey8A), the “cells attached to flasks” value is “less than 40%”. Also, the “IC50 of prostate (DU145)” value in [15] is 4 µg/mL. Besides, the “IC50 of leukemia (K562)” value in data set [16] is 4 µg/mL. For the same compound, the “IC50 of mouth (KB)” value in data set [17] came out at 4.5 µg/mL. Besides, the “IC50 of kidney (A498)” value in data set [18] was determined as 4.8 µg/mL. Also, the “IC50 of brain (T98G)” value in [19] is 14 µg/mL. For the same compound, in [20], the “IC50 of cervix (HeLa)” value was found to be 7 µg/mL.
